Experimental data: patent publication US8748610B2, “Compounds as TRPV1 antagonists, pharmaceutical compositions and medical uses thereof” (FL Therapeutics LLC, priority 2009, dated 2014)

Molecular target: T1, recombinant human TRPV1 (Homo sapiens, UniProt Q8NER1)
T1 construct: expressed in transfected cells
Experiment: FLIPR based Ca2+ influx assay, capsaicin-induced, TRPV1.CHO cells
Type: cell-based
Conditions: CHO-K1 cells stably expressing recombinant human TRPV1; 30 nM capsaicin (~EC80); 15 mins pre-incubation
Protocol: The functional activity of compounds at the TRPV1 receptor was determined using a Molecular Devices FLIPR based Ca^2+ influx assay, employing a Ca^2+ sensitive fluorescent dye and a CHO-K1 cell line, stably expressing recombinant human TRPV1, under the control of a CMV promoter (TRPV1.CHO cells). TRPV1.CHO cells were routinely maintained at 37° C./5% CO2 in normal growth medium (Dulbecco's Modified Eagles medium (DMEM/NUT.MDC.F-12 GLUTAMAX-1 (1:1) with PYRIDOXINE) supplemented with 10% fetalclone II serum and 0.4 mg/ml G418, (all Invitrogen).
Test compounds were prepared as 10 mM stock solution in DMSO and tested for activity over several log units (ranging […]-100 pM). Serial dilutions (half-log dose response) were prepared in 100% DMSO with further dilutions in aqueous assay buffer to final assay concentration for IC50 determination (1% DMSO final).
TRPV1.CHO cells were seeded (10,000 cells/well) in a 384 clear bottom plate (Costar) 24 hr prior to assay. […]
TRPV1 responses were assessed following addition, in the FLIPR, of 12.5 μl/well of test compound (to give appropriate final concentration) for 15 mins time followed by 12.5 μl/well of 120 nM capsaicin (agonist) in TRPV1 buffer to give a final concentration of capsaicin of 30 nM (˜EC80 concentration). Ca^2+ influx was assessed by measurement of fluorescence. Baseline fluorescence responses were measured for approximately 10 s prior to addition of capsaicin. Increases in fluorescence emission following capsaicin addition were measured for a further 110 s. Responses were recorded as Max-Min fluorescence. Antagonist induced inhibition of TRPV1 mediated increases in intracellular [Ca^2+] was assessed relative to wells on the same plate to which capsaicin was added in the absence of antagonist (i.e pre-incubation in buffer alone).

T1 sequence (Q8NER1 whole entry): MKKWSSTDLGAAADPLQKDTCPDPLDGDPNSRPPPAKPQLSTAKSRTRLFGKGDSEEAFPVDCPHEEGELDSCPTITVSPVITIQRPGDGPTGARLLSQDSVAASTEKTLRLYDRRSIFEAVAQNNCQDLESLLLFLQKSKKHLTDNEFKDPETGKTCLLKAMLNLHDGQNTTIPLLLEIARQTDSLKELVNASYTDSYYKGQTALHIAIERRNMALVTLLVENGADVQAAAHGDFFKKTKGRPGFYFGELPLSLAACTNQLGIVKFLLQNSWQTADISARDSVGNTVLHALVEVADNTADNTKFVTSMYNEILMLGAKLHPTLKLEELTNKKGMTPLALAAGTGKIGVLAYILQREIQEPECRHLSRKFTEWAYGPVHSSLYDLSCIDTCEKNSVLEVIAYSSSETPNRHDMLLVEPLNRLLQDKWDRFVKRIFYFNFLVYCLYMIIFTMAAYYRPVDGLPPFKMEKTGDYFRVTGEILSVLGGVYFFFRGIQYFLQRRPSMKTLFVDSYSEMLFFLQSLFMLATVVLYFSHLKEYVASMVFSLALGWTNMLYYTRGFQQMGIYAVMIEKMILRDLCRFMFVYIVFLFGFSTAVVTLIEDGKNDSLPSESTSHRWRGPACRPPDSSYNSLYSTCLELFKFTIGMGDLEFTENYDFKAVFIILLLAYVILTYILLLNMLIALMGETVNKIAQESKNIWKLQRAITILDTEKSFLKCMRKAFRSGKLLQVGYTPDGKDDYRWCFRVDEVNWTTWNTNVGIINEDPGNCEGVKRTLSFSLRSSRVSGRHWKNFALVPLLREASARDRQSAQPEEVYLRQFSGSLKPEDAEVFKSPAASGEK

Structure (SMILES) | IC50
C[Si](C)(C)c1ccc(NC(=O)N2CCN(c3ncccc3Cl)CC2)cc1 [A-01, 4(3-chloropyridin-2-yl)-N-(4-(trimethylsilyl)phenyl)piperazine-1-carboxamide] | 0.5 nM
C[Si](C)(C)c1ccc(NC(=O)c2ccc(-c3ncccc3C(F)(F)F)cc2)cc1 [A-04, 4-(3-(trifluoromethyl)pyridin-2-yl)-N-(4-(trimethylsilyl)phenyl)benzamide] | 5.4 nM
C[Si](C)(C)c1ccc(NC(=O)C2=CCN(c3ncccc3Cl)CC2)cc1 [A-05, 1-(3-chloropyridin-2-yl)-N-(4-(trimethylsilyl)phenyl)-1,2,3,6-tetrahydropyridine-4-carboxamide] | 2.3 nM
